Measurements published in patent US20130252930A1 (BIOMARIN PHARMACEUTICAL INC., priority 2010, published 2013).
Read-outs that look alike come from different tables or passages of the source.

Columns and labels:
[1] = target: T1, Cyp21 enzyme (Human HEK 293-Cyp21 stable transfected cells) (Homo sapiens, UniProt P08686); assay: CYP21-HEK293 enzymatic assay (IC50) (Biological Example 11); assay type: cell-based; conditions: HEK 293-Cyp21 cells
T1 construct: expressed in transfected cells
T1 sequence (P08686 1-495): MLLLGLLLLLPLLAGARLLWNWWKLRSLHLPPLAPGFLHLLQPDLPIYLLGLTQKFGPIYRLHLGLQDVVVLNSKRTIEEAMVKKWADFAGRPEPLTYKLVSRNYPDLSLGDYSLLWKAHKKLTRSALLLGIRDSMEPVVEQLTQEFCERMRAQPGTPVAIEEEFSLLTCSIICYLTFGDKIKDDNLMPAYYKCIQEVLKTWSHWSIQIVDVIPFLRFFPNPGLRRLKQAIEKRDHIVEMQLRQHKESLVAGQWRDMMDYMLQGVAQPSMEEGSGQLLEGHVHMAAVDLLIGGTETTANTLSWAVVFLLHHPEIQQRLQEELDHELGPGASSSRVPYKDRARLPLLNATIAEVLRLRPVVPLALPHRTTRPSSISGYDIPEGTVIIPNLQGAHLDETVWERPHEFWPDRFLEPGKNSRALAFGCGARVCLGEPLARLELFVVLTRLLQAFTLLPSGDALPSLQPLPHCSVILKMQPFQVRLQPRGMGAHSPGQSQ
Experimental: This assay was used to determine compound activity against Cyp21 enzyme. […] The next day, 20 μL medium was carefully removed and 10 μL of 10× pre-made compounds in DMEM+10% FBS+10% methanol was transferred to the wells to final concentrations of 1000, 100, 10, 1, or 0.1 nM. Mock treatment was 1% methanol in growth media and the cells were left at 37° C., 5% CO2 for 5 hr. After the incubation, 10 μL of substrate progesterone (Sigma) was added to the wells to make a final concentration of 10 μM. The cells were incubated the cells at 37° C. for 20 hr. At the end of incubation, 90 μL of conditioned media was removed to measure DOC level by ELISA.
The next day, the plates were washed twice with 250 μl of wash solution (0.015M PBS pH 7.4 containing 0.05% Tween 20). After being washed, the wells were blocked with 250 μL blocking buffer (3% BSA in 0.025M PBS, pH 7.4) at 37° C. for 2 h. The plates were washed again 3 times as before, and then 90 μL of sample /standards (prepared in complete growth media) was added into the appropriate wells followed by 10 μL of antibody solution (1:450 rabbit anti-DOC in 0.6% BSA/PBS). The plates were incubated at room temperature for 2 h on a shaker. The contents of the wells were removed and the plate was washed 4 times. After the final wash, 100 μL of secondary antibody (1:12000 HRP-goat-anti-rabbit IgG conjugate 0.6% BSA/PBS) was added into each well. […] The plate was washed again 4 times and 100 μL of TMB substrate solution was added to each well. The plate was incubated at room temperature for 10 min. 100 μL of stop solution was added to each well and the optical density was read at 450 nm.
The mean absorbance value for each sample was used to determine the corresponding concentration from the standard curve. Data was analyzed with “log(antagonist) vs response variable slope” under “non-linear regression analysis” using Prism5 software.

[2] = target: T2, CYP17 (human testicular microsome) (Homo sapiens, UniProt P05093); assay: CYP17 enzymatic assay (% inhibition at 1 nM) (Biological Example 12); assay type: biochemical; conditions: compound at 1 nM
T2 construct: using microsomal fraction from human testis (Celsis Cat #S00110) as the enzyme source; tissue Celsis S00110; host or cells: human testis microsomal fraction
T2 sequence (P05093 1-508): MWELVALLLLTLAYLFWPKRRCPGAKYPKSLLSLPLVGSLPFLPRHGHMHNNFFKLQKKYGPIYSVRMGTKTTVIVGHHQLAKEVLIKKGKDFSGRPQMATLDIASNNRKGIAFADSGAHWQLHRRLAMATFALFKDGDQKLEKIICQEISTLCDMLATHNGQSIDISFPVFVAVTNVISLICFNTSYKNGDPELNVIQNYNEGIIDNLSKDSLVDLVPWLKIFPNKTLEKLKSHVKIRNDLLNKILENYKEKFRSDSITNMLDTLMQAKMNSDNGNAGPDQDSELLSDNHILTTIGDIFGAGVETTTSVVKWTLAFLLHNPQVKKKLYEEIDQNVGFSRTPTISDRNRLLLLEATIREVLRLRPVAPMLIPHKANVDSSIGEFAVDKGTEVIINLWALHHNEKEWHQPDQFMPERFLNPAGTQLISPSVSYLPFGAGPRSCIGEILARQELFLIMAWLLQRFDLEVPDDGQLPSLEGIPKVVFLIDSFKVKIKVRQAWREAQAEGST

[3] = Human liver microsome stability assay (Biological Example 8b); conditions: liver microsomes, pH 7.4
Experimental: The reaction was started with addition of excess NADPH (5 mg/mL, 15 μL in 0.1 M potassium phosphate buffer, 1.0 mM EDTA, pH 7.4), the total volume is 45 μL (compound final concentration was 1 μM). […] 50 μL of the supernatant was transferred from each well into a 96-well sample plate containing 50 μL of ultra-pure water (Millipore) for LC-MS/MS analysis.

CYP17 (H295R cells) = target: T3, CYP17 (H295R cells) (Homo sapiens, UniProt P05093); assay: CYP17 cellular assay (IC50), testosterone in H295R cells (Biological Example 7); assay type: cell-based
T3 construct: endogenous in cells; host or cells: H295R cells
T3 sequence (P05093 1-508): T2 sequence (P05093 1-508)
Experimental: The assays were performed in 96-well plates. Typically H295R cells were seeded at 4.5×10^4 cells/well in 100 μL Growth Medium containing DMEM/F-12 (Gibco/Invitrogen; 11330-032), 2.5% Nu-Serum (BD Bioscience; 355100) and ITS (BD Bioscience; 354352), and cultured at 37° C., 5% CO2 for 24 hr. The next day, media were carefully removed and cells were washed twice with 200 μL 1×HBSS++. Test compounds were then added to the cells at 100, 10, 1, 0.1 nM final concentrations in 125 μL volume per well in serum-free media containing DMEM/F-12 and ITS+ Premix (BD Bioscience; 354352) with 0.1% methanol. Serum-free media with 0.1% methanol without test compound was used as control. Cells were incubated with compounds at 37° C. for additional 24 hours, and the cultured media from each compound treated well was harvested for measurement of testosterone concentration by ELISA according to manufacturer's instruction (Assay Design). Testosterone concentration of each sample was plotted vs. the concentration of the test compounds.

[4] = target: T2, CYP17 (human testicular microsome); assay: CYP17 enzymatic assay (IC50) (Biological Example 4); assay type: biochemical
[5] = target: T2, CYP17 (human testicular microsome); assay: CYP17 enzymatic assay (% inhibition at 10 nM), version 1 (Biological Example 5); assay type: biochemical; conditions: 10 nM compound, DHEA by ELISA, read-out: Biological Example No. 5: CYP17 percent inhibition at 10 nM (version 1)
[6] = read-out: CYP21-HEK293 enzymatic assay IC50 (Biological Example No. 11)
[7] = read-out: CYP17 enzymatic assay % inhibition at 1 nM (Biological Example No. 12)
[8] = H295R cells, testosterone, read-out: CYP17 cellular assay IC50 (Biological Example No. 7)
[9] = read-out: Biological Example No. 11: CYP21-HEK293 enzymatic assay IC50
[10] = read-out: Biological Example No. 12: CYP17 enzymatic assay % inhibition at 1 nM
[11] = H295R cells, testosterone, read-out: Biological Example No. 7: CYP17 cellular assay IC50
[12] = human testicular microsome, read-out: Biological Example No. 4: CYP17 enzymatic assay IC50
[13] = human testicular microsome, read-out: CYP17 enzymatic assay IC50 (Biological Example No. 4)

Structure (SMILES) | inhibition at 0.001 µM [2, 7] [%] | half-life at 1 μM [3] [min] | IC50 (CYP17 (H295R cells); [8]) [nM] | IC50 [1, 9] [nM] | inhibition at 0.001 µM [2, 10] [%] | IC50 (CYP17 (H295R cells); [11]) [nM] | IC50 [4, 12] [nM] | further results
CC1C[C@@H]2[C@H](CC[C@]3(C)C(c4cccnc4)=CC[C@@H]23)[C@@]2(C)CCC(=O)C=C12 (stereo partly drawn) [Compound 309, (10R,13S)-6,10,13-trimethyl-17-(pyridin-3-yl)-6,7,8,9,10,11,12,13,14,15-decahydro-1H-cyclopenta[a]phenanthren-3(2H)-one] | > 50 | 1 to 50 | < 15 | – | – | – | – | IC50 [1, 6]: 10 to 100 nM; IC50 [4]: < 11 nM
CC1=C2CC[C@@H]3[C@H](CC[C@]4(C)C(c5cccnc5)=CC[C@@H]34)[C@@]2(C)CCC1=O [Compound 300, (10R,13S)-4,10,13-trimethyl-17-(pyridin-3-yl)-6,7,8,9,10,11,12,13,14,15-decahydro-1H-cyclopenta[a]phenanthren-3(2H)-one] | – | – | – | > 1000 | > 50 | < 15 | < 11 | –
C=C1C[C@@H]2[C@H](CC[C@]3(C)C(c4cccnc4)=CC[C@@H]23)[C@@]2(C)CCC(=O)C=C12 [Compound 312, (10R,13S)-10,13-dimethyl-6-methylene-17-(pyridin-3-yl)-6,7,8,9,10,11,12,13,14,15-decahydro-1H-cyclopenta[a]phenanthren-3(2H)-one] | > 50 | 1 to 50 | < 15 | – | – | – | – | IC50 [1, 6]: 10 to 100 nM; IC50 [4, 13]: < 11 nM
C[C@]12CCC(=O)C=C1C1(CC1)C[C@@H]1[C@@H]2CC[C@]2(C)C(c3cccnc3)=CC[C@@H]12 [Compound 313, (10R,13S)-10,13-dimethyl-17-(pyridin-3-yl)-1,7,8,9,10,11,12,13,14,15-decahydrospiro[cyclopenta[a]phenanthrene-6,1′-cyclopropan]-3(2H)-one] | > 50 | 1 to 50 | < 15 | – | – | – | – | IC50 [1, 6]: < 10 nM; IC50 [4, 13]: < 11 nM
CC1CC2C(CC[C@]3(C)C(c4cccnc4)=CCC23)[C@@]2(C)CCNC(=O)C=C12 (stereo partly drawn) [Compound 368, (5aR,7aS)-5a,7a,12-trimethyl-8-(pyridin-3-yl)-3,4,5,5a,5b,6,7,7a,10,10a,11,12-dodecahydrocyclopenta[5,6]naphtho[1,2-d]azepin-2(10bH)-one] | – | 1 to 50 | – | < 10 | > 50 | < 15 | < 11 | –
C[C@]12CCNC(=O)C=C1C1CC1[C@@H]1[C@@H]2CC[C@]2(C)C(c3cncc(F)c3)=CC[C@@H]12 (stereo partly drawn) [Compound 388, (5aR,7aS)-8-(5-fluoropyridin-3-yl)-5a,7a-dimethyl-3,4,5,5a,5b,6,7,7a,10,10a,10b,10c,11,11a-tetradecahydro-2H-cyclopenta[5,6]cyclopropa[3,4]naphtho[1,2-d]azepin-2-one] | – | 1 to 50 | – | > 1000 | > 50 | < 15 | < 11 | –
COc1cncc(C2=CC=C3[C@@H]4CC=C5C[C@@H](O)CC[C@]5(C)[C@H]4CC[C@]23C)c1 [Compound 81, (3S,10R,13S)-17-(5-methoxypyridin-3-yl)-10,13-dimethyl-2,3,4,7,8,9,10,11,12,13-decahydro-1H-cyclopenta[a]phenanthren-3-ol] | – | > 50 | – | – | – | – | – | inhibition at 0.01 µM [5]: > 80%; IC50 (CYP17 (H295R cells); H295R cells, testosterone by ELISA, 24 hours, read-out: Biological Example No. 7: CYP17 cellular assay IC50): < 15 nM; IC50 ([4]; human testicular microsome, DHEA by ELISA, read-out: Biological Example No. 4: CYP17 enzymatic assay IC50): < 11 nM
C=C1C[C@@H]2[C@H](CC[C@]3(C)C(c4cncc(F)c4)=CC[C@@H]23)[C@@]2(C)C=CC(=O)C=C12 [Compound 320, (10R,13S)-17-(5-fluoropyridin-3-yl)-10,13-dimethyl-6-methylene-6,7,8,9,10,11,12,13,14,15-decahydro-3H-cyclopenta[a]phenanthren-3-one] | – | 1 to 50 | – | > 100 | – | < 15 | < 11 | –
CC1C[C@@H]2[C@H](CC[C@]3(C)C(c4cccnc4)=CC[C@@H]23)[C@@]2(C)C=CC(=O)C=C12 (stereo partly drawn) [Compound 318, (10R,13S)-6,10,13-trimethyl-17-(pyridin-3-yl)-6,7,8,9,10,11,12,13,14,15-decahydro-3H-cyclopenta[a]phenanthren-3-one] | – | 1 to 50 | – | < 10 | > 50 | < 15 | – | –
C=C1C[C@@H]2[C@H](CC[C@]3(C)C(c4cccnc4)=CC[C@@H]23)[C@@]2(C)C=CC(=O)C=C12 [Compound 311, (10R,13S)-10,13-dimethyl-6-methylene-17-(pyridin-3-yl)-6,7,8,9,10,11,12,13,14,15-decahydro-3H-cyclopenta[a]phenanthren-3-one] | > 50 | 1 to 50 | < 15 | – | – | – | – | IC50 [1, 6]: < 10 nM; IC50 [4, 13]: < 11 nM
C[C@]12CCNC(=O)C=C1C1(CC1)CC1C2CC[C@]2(C)C(c3cccnc3)=CCC12 (stereo partly drawn) [Compound 369, (5aR,7aS)-5a,7a-dimethyl-8-(pyridin-3-yl)-3,4,5,5a,5b,6,7,7a,10,10a,10b,11-dodecahydro-2H-spiro[cyclopenta[5,6]naphtho[1,2-d]azepine-12,1′-cyclopropan]-2-one] | – | 1 to 50 | – | < 10 | 10 to 50 | < 15 | < 11 | –
CC1CC2C3=CC=C(c4cncc(F)c4)[C@@]3(C)CCC2[C@@]2(C)CCC(=O)C=C12 (stereo partly drawn) [Compound 327, (10R,13S)-17-(5-fluoropyridin-3-yl)-6,10,13-trimethyl-6,7,8,9,10,11,12,13-octahydro-1H-cyclopenta[a]phenanthren-3(2H)-one] | – | 1 to 50 | – | < 10 | 10 to 50 | – | – | IC50 (CYP17 (H295R cells)): < 15 nM
CC(=O)N[C@@H]1CC[C@@]2(C)C(=CCC3C2CC[C@]2(C)C(c4cccnc4)=CCC32)C1 (stereo partly drawn) [Compound 223, N-((3R,10R,13S)-10,13-dimethyl-17-(pyridin-3-yl)-2,3,4,7,8,9,10,11,12,13,14,15-dodecahydro-1H-cyclopenta[a]phenanthren-3-yl)acetamide] | > 50 | 1 to 50 | < 15 | – | – | – | – | IC50 [4, 13]: < 11 nM
CC1CC2C(CC[C@]3(C)C(c4cncc(F)c4)=CCC23)[C@@]2(C)CCC(=O)C=C12 (stereo partly drawn) [Compound 342, (10R,13S)-17-(5-fluoropyridin-3-yl)-6,10,13-trimethyl-6,7,8,9,10,11,12,13,14,15-decahydro-1H-cyclopenta[a]phenanthren-3(2H)-one] | – | – | – | > 100 | > 50 | < 15 | < 11 | –
